Data published in EP0863214A2, “Reporter gene construct for measuring G protein coupled receptor activation” (SMITHKLINE BEECHAM CORPORATION, priority 1997, dated 1998).
Ends that are not written are not given here.

system: HEK 293 cells transfected with MREII VIPII; assay type: cell-based, Human; settings: wild-type HEK 293 cells or HEK 293 cells expressing the porcine CGRP receptor; endogenous receptors or direct activation of adenylyl cyclase; in the presence of IBMX
Experimental: Day 1: HEK293 cells at a density of 4.5x10^6/T-75 flask in Earl's Minimum Essential Medium (EMEM) supplemented with 10% fetal bovine serum and 2 mM glutamine were incubated overnight in a humidified tissue culture incubator at 37°C, 5% CO2.
Day 2: MREII VIPII DNA (7.8 µg) was mixed with 780 µl of serum free EMEM to produce Solution A. Lipofectamine (23.1 µl; Gibco-BRL) was mixed with 780 µl of serum EMEM to produce Solution B. Solutions A and B were then mixed gently and incubate at room temperature for 15-45 minutes. Cells were then rinsed with 15 ml of serum free EMEM and 6.25 ml of serum free EMEM was added. Combined solutions (A + B) were overlayed and the flask was placed in a tissue culture incubator for 5 hours. Media was replaced with 15 ml of EMEM/10% serum/ 2 mM glutamine and stored in the tissue culture incubator.
Day 3: Ninety-six well tissue culture plates were treated with Matrigel (50 µl/well diluted 1/50 with phosphate buffered saline (PBS); Collaborative Biomedical Products) for > 1 hour. Matrigel solution was then removed and the plate was transfected with HEK 293 cells at a cell density of 2.6 x 10^4/well in 100 µl of supplemented EMEM. […] Cells were then incubated for 6 hours in a humidified tissue culture incubator at 37°C, 5% CO2. Media was removed and cells were washed with 50 µl of PBS.
Cell lysis solution (50 µl; Promega) supplemented with AEBSF (0.24 mg/ml), pepstatin, leupeptin, and aprotinin (5µg/ml each), and DNAse I (50 µg/ml) was added and extracts were frozen. Ten microliters of thawed extract were added to assay plates along with 50 µl of reconstituted luciferase assay reagent (Promega) using a luminometer autoinjector (Dynex MLX) and samples were read. Luciferase activity is expressed as a fold enhancement over the basal luciferase activity expressed in cells that have not been challenged with agonist, IBMX, TPA, or forskolin.

| Compound | Luciferase stimulation |
| --- | --- |
| Nc1ncnc2c1ncn2[C@@H]1O[C@H](COP(=O)(O)OP(=O)(O)OP(=O)(O)O)[C@@H](O)[C@H]1O [ATP] | did not stimulate luciferase induction |
| CCCCC[C@H](O)/C=C/[C@H]1[C@H](O)CC(=O)[C@@H]1C/C=C\CCCC(=O)O [PGE2] | Luciferase stimulation was observed |
| Nc1ncnc2c1ncn2[C@@H]1O[C@H](CO)[C@@H](O)[C@H]1O [adenosine] | did not stimulate luciferase induction |
| C[N+](C)(C)CCOC(N)=O [carbachol] | did not stimulate luciferase induction |
| VIP (HSDAVFTDNYTRLRKQMAVKKYLNSILN; not fully specified (C-terminus); ends and bridges not checked; UniProt P01282 125-152, looked up) | Luciferase stimulation was observed |
| calcitonin (CGNLSTCMLGTYTQDFNKFHTFPQTAIGVGAP; not fully specified (C-terminus, bridges); ends and bridges not checked; UniProt P01258 85-116, looked up) | Luciferase stimulation was observed |
| endothelin (CSCSSLMDKECVYFCHLDIIW; not fully specified (bridges); ends and bridges not checked; UniProt P05305 53-73, looked up) | did not stimulate luciferase induction |
